The test system of one test is COLO 201. The test is described as follows: Cytotoxicity against human COLO201 cells assessed as reduction in cell proliferation measured after 24 hrs by WST-1 assay. It is filed as functional, cell-based. As to conditions: COLO 201, 24 h. A general note: Tetrazolium dyes change colour on reduction, which living cells bring about.
A further test has as its system Bipolaris oryzae. The test is described as follows: Antifungal activity against Bipolaris oryzae incubated for 5 days. As to conditions: time 5.0 day. In kind it is functional, organism-based.

Each structure is given as a SMILES string. Calls of active or inactive are those of the source. The rule behind the calls is not given here.

A word on the IC50: it is the midpoint of a concentration-inhibition curve. Turning to `CC(=O)[C@H](O)[C@H]1[C@H](C)C=CC(=O)[C@@H]1O`, the IC50 in the test with COLO 201 was more than 500 µM. The result in the test with Bipolaris oryzae was inactive.
The matching figures for `C[C@@H]1C=C[C@]2(O)C[C@@]3(O)C(=O)O[C@@H]2[C@@H]13`: more than 500 µM and “inactive”.
Taken in the same sequence, the figures for `CC(=O)[C@@H](O)c1c(C)ccc2c1O[C@@]1(O2)[C@@]2(O)C=C[C@@H](C)[C@@H]3[C@H]2OC(=O)[C@@]31O` were 200 µM and “inactive”.
Taken in the same sequence, the figures for `Cc1ccc(O)cc1C(=O)[C@H](C)O` were 290 µM and “inactive”.
Regarding `CC(=O)[C@@H](O)c1c(C)ccc2c1O[C@]1(O2)[C@@]2(O)C=C[C@@H](C)[C@@H]3[C@H]2OC(=O)[C@@]31O`, the IC50 in the test with COLO 201 is 260 µM. Further, the result with Bipolaris oryzae was inactive.
The matching figures for `C=C1OC(=O)[C@]23[C@@H]1O[C@H](CC(=O)[C@@H]2O)[C@H]3C`: 390 µM and “inactive”.
In the case of `CC(=O)C(O)c1cc(O)ccc1C` (stereo not drawn), in the test with COLO 201, the IC50 turned out to be 340 µM. Moreover, the result in the test with Bipolaris oryzae was inactive.
Taken in the same sequence, the figures for `C[C@@H]1C=C[C@@]2(O)C[C@]3(O)C(=O)O[C@H]2[C@H]13` were 300 µM and “inactive”.
For the molecule `COC(=O)[C@]12[C@@H](C(C)=O)O[C@H](CC(=O)[C@@H]1O)[C@H]2C`, the IC50 in the test with COLO 201 was determined as 200 µM. Moreover, the result in the test with Bipolaris oryzae was inactive.

For the origin of these results see ChEMBL document CHEMBL5321260, “Pseudo-Enantiomeric Paraphaeolactones and Their Biosynthetic Derivatives from Paraphaeosphaeria sp. KT4192: A Proposition of a Favorskii Rearrangement for Their Biosynthesis” (J Nat Prod, 2023).
